Experimental data published in ChEMBL document CHEMBL1781971, “Discovery of 5-(arenethynyl) hetero-monocyclic derivatives as potent inhibitors of BCR-ABL including the T315I gatekeeper mutant” (Bioorg Med Chem Lett, 2011).
pIC50: −log10 of the molar value. Values belong to the compound of their own block, whether it stands above or below them.

How the values were obtained:
[1] = molecular target: Tyrosine-protein kinase ABL1 (Homo sapiens, UniProt P00519)
[2] = molecular target: Tyrosine-protein kinase ABL1 (Homo sapiens, UniProt P00519, T315I)
cells [3] = conditions: Mus musculus, BaF3
cells [4] = conditions: Mus musculus, BaF3; remark: listed apart in the source
Description: Antiproliferative activity against BCR-ABL-negative parental mouse BA/F3 cells

cells [5] = conditions: Mus musculus, BaF3; remark: listed apart in the source
Description: Antiproliferative activity against mouse BA/F3 cells expressing wild type BCR-ABL

[6] = Clearance in rat at 5 mg/kg, iv; assay type: ADME, organism-based; parameters: dose 5 mg/kg, route intravenous; conditions: in vivo
[7] = Cmax in rat at 15 mg/kg, po; assay type: ADME, organism-based; parameters: dose 15 mg/kg, route oral; conditions: in vivo
[8] = Half life in rat at 5 mg/kg, iv; assay type: ADME, organism-based; parameters: dose 5 mg/kg, route intravenous; conditions: in vivo
[9] = Oral bioavailability in rat at 15 mg/kg; assay type: ADME, organism-based; conditions: in vivo
[10] = Half life in rat at 15 mg/kg, po; assay type: ADME, organism-based; parameters: dose 15 mg/kg, route oral; conditions: in vivo
[11] = Plasma concentration in mouse after 6 hrs at 30 mg/kg, po; assay type: ADME, organism-based; parameters: dose 30 mg/kg, route oral
[12] = Volume of distribution in rat at 5 mg/kg, iv; assay type: ADME, organism-based; parameters: dose 5 mg/kg, route intravenous; conditions: in vivo
Rattus norvegicus [13] = experiment: AUC in rat at 15 mg/kg, po; assay type: ADME, organism-based, Plasma; parameters: dose 15 mg/kg, route oral; conditions: in vivo
[14] = Cmax in rat at 5 mg/kg, iv; assay type: ADME, organism-based; parameters: dose 5 mg/kg, route intravenous; conditions: in vivo
Rattus norvegicus [15] = experiment: AUC in rat at 5 mg/kg, iv; assay type: ADME, organism-based, Plasma; parameters: dose 5 mg/kg, route intravenous; conditions: in vivo
[16] = molecular target: Receptor-type tyrosine-protein kinase FLT3 (Homo sapiens, UniProt P36888)
Ephrin type-A receptor 7 = Ephrin type-A receptor 7 (Homo sapiens, UniProt Q15375); experiment: Inhibition of human EPHA7 using poly[Glu:Tyr] peptide substrate by Hotspot assay
[17] = molecular target: Serine/threonine-protein kinase B-raf (Homo sapiens, UniProt P15056); experiment: Inhibition of human BRAF using MEK1 (K97R), ATP substrate by Hotspot assay
Angiopoietin-1 receptor = Angiopoietin-1 receptor (Homo sapiens, UniProt Q02763); experiment: Inhibition of human Tie2/TEK using poly[Glu:Tyr] by Hotspot assay
[18] = molecular target: Vascular endothelial growth factor receptor 1 (Homo sapiens, UniProt P17948); experiment: Inhibition of human VEGFR1 using poly[Glu:Tyr] by Hotspot assay
[19] = molecular target: Platelet-derived growth factor receptor alpha (Homo sapiens, UniProt P16234); experiment: Inhibition of human PDGFRalpha using poly[Glu:Tyr] by Hotspot assay
[20] = molecular target: Hepatocyte growth factor receptor (Homo sapiens, UniProt P08581); experiment: Inhibition of human c-Met using KKKSPGEYVNIEFG peptide substrate by Hotspot assay
[21] = Antitumor activity against mouse BA/F3 cells expressing ABL T315I mutant xenografted in mouse assessed as increase in overall survival at 30 mg/kg, po QD for 19 days relative to control; assay type: functional, BaF3
[22] = molecular target: Proto-oncogene tyrosine-protein kinase Src (Homo sapiens, UniProt P12931); experiment: Inhibition of human Src using poly[Glu:Tyr] by Hotspot assay
[23] = molecular target: Fibroblast growth factor receptor 3 (Homo sapiens, UniProt P22607); experiment: Inhibition of human FGFR3 using poly[Glu:Tyr] peptide substrate by Hotspot assay
Aurora kinase A = Aurora kinase A (Homo sapiens, UniProt O14965); experiment: Inhibition of human Aurora A using H-LRRASLG peptide substrate by Hotspot assay
Ephrin type-A receptor 3 = Ephrin type-A receptor 3 (Homo sapiens, UniProt P29320); experiment: Inhibition of human EPHA3 using poly[Glu:Tyr] peptide substrate by Hotspot assay
[24] = molecular target: Cyclin-dependent kinase 2/cyclin E1 (Homo sapiens, UniProt P24941); experiment: Inhibition of human CDK2/Cyclin E using Histone H1 substrate by Hotspot assay; assay type: protein-complex assay
[25] = molecular target: Macrophage colony-stimulating factor 1 receptor (Homo sapiens, UniProt P07333); experiment: Inhibition of human FMS using poly[Glu:Tyr] by Hotspot assay
[26] = molecular target: Fibroblast growth factor receptor 2 (Homo sapiens, UniProt P21802); experiment: Inhibition of human FGFR2 using poly[Glu:Tyr] peptide substrate by Hotspot assay
[27] = molecular target: Tyrosine-protein kinase JAK1 (Homo sapiens, UniProt P23458); experiment: Inhibition of human JAK1 using poly[Glu:Tyr] by Hotspot assay
Ephrin type-A receptor 2 = Ephrin type-A receptor 2 (Homo sapiens, UniProt P29317); experiment: Inhibition of human EPHA2 using poly[Glu:Tyr] peptide substrate by Hotspot assay
Insulin receptor = Insulin receptor (Homo sapiens, UniProt P06213); experiment: Inhibition of human IR using poly[Glu:Tyr] by Hotspot assay
[28] = molecular target: Fibroblast growth factor receptor 1 (Homo sapiens, UniProt P11362); experiment: Inhibition of human FGFR1 using KKKSPGEYVNIEFG peptide substrate by Hotspot assay
[29] = molecular target: Mast/stem cell growth factor receptor Kit (Homo sapiens, UniProt P10721); experiment: Inhibition of human c-Kit using poly[Glu:Tyr] by Hotspot assay
[30] = molecular target: Tyrosine-protein kinase Lyn (Homo sapiens, UniProt P07948); experiment: Inhibition of human LYN using poly[Glu:Tyr] by Hotspot assay
[31] = molecular target: Vascular endothelial growth factor receptor 2 (Homo sapiens, UniProt P35968); experiment: Inhibition of human VEGFR2 using poly[Glu:Tyr] by Hotspot assay
[32] = molecular target: Serine/threonine-protein kinase B-raf (Homo sapiens, UniProt P15056, V600E); experiment: Inhibition of human BRAF V599E mutant using MEK1 (K97R), ATP substrate by Hotspot assay
[33] = molecular target: Tyrosine-protein kinase JAK3 (Homo sapiens, UniProt P52333); experiment: Inhibition of human JAK3 using GEEEEYFELVKKKK peptide substrate by Hotspot assay
[34] = molecular target: Tyrosine-protein kinase JAK2 (Homo sapiens, UniProt O60674); experiment: Inhibition of human JAK2 using poly[Glu:Tyr] by Hotspot assay
[35] = molecular target: Fibroblast growth factor receptor 4 (Homo sapiens, UniProt P22455); experiment: Inhibition of human FGFR4 using poly[Glu:Tyr] peptide substrate by Hotspot assay
Chain of Fibroblast growth factor receptor 4 (P22455 whole entry): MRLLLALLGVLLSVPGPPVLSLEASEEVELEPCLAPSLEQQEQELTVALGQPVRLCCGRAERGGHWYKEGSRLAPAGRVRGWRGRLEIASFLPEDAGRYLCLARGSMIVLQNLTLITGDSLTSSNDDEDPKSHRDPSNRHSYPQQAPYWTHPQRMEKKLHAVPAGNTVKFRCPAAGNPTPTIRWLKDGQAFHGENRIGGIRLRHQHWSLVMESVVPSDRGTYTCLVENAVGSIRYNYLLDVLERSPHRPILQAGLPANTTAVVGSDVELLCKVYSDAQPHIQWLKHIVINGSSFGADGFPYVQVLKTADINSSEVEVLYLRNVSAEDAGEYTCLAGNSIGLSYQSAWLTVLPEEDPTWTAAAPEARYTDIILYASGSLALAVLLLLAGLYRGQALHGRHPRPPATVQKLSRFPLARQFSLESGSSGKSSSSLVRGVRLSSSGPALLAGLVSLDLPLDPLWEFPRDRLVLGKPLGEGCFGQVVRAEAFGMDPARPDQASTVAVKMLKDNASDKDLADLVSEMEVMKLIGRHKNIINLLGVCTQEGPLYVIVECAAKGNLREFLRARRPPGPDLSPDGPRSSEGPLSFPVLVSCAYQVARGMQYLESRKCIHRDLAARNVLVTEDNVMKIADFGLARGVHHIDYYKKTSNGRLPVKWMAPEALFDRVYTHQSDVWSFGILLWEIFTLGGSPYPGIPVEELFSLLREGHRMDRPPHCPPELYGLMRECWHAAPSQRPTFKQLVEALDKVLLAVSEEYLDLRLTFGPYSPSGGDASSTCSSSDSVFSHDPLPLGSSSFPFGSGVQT

Chain of Vascular endothelial growth factor receptor 1 (P17948 whole entry): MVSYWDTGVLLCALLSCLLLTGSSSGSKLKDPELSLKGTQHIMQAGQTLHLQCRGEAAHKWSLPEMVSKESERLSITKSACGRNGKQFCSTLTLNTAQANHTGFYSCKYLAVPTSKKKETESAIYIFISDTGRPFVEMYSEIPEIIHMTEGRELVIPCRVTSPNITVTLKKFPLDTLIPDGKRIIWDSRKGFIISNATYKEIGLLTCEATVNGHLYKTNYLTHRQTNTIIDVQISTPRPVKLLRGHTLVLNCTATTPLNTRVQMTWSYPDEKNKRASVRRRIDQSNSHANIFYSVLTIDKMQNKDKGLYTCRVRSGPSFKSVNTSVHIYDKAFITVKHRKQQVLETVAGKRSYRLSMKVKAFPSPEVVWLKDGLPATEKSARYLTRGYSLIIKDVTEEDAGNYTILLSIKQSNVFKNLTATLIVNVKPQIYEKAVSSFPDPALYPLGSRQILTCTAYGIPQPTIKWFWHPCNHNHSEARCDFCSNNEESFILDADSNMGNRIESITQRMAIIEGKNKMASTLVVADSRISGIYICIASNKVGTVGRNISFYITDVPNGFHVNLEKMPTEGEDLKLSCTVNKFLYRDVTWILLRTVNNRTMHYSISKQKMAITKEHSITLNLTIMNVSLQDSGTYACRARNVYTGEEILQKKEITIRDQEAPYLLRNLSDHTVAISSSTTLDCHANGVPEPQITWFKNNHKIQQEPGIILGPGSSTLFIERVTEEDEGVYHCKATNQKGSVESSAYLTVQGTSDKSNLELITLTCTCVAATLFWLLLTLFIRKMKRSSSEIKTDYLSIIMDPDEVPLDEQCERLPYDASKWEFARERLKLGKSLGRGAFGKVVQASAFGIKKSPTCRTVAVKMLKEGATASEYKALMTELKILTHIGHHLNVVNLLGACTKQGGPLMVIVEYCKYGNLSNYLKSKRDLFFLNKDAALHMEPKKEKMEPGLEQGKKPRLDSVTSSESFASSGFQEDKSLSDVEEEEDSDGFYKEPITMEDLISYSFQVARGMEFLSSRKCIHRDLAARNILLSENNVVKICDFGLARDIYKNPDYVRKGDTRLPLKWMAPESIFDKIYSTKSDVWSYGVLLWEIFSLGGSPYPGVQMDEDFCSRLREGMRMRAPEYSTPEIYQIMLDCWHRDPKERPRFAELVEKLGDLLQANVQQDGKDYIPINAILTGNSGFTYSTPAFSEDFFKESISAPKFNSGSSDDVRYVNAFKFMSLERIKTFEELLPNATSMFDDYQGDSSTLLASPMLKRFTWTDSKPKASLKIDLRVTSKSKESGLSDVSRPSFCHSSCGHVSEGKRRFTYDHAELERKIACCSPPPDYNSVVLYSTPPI
Chain of Tyrosine-protein kinase JAK2 (O60674 whole entry): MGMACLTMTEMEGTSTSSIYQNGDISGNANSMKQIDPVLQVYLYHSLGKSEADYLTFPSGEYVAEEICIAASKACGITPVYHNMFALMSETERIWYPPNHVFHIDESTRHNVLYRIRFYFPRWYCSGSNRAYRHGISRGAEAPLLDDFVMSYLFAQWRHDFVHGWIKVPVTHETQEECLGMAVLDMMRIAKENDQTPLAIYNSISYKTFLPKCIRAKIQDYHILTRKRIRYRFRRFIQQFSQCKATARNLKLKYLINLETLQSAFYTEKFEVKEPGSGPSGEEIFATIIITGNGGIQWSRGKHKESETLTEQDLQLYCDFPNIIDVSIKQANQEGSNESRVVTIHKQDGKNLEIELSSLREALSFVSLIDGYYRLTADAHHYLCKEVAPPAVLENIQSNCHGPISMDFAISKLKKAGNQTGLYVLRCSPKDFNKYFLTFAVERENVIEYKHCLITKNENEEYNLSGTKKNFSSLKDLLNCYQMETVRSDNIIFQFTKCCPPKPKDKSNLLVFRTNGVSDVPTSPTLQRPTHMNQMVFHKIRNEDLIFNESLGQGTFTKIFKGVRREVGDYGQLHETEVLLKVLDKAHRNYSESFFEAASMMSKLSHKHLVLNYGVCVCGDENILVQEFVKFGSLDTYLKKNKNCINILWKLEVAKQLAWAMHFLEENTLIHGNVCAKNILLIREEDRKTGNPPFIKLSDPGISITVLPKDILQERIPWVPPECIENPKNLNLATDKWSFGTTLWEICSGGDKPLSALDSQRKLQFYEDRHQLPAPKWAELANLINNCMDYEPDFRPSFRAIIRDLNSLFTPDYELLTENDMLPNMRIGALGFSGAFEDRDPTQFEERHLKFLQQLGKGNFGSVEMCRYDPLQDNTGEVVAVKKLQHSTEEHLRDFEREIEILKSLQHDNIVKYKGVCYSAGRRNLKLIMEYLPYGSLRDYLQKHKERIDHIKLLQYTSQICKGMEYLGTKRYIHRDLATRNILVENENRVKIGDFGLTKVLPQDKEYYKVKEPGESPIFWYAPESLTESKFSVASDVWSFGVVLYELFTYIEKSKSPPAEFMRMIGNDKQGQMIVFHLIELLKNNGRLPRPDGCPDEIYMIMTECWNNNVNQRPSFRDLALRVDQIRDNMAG
Chain of Receptor-type tyrosine-protein kinase FLT3 (P36888 whole entry): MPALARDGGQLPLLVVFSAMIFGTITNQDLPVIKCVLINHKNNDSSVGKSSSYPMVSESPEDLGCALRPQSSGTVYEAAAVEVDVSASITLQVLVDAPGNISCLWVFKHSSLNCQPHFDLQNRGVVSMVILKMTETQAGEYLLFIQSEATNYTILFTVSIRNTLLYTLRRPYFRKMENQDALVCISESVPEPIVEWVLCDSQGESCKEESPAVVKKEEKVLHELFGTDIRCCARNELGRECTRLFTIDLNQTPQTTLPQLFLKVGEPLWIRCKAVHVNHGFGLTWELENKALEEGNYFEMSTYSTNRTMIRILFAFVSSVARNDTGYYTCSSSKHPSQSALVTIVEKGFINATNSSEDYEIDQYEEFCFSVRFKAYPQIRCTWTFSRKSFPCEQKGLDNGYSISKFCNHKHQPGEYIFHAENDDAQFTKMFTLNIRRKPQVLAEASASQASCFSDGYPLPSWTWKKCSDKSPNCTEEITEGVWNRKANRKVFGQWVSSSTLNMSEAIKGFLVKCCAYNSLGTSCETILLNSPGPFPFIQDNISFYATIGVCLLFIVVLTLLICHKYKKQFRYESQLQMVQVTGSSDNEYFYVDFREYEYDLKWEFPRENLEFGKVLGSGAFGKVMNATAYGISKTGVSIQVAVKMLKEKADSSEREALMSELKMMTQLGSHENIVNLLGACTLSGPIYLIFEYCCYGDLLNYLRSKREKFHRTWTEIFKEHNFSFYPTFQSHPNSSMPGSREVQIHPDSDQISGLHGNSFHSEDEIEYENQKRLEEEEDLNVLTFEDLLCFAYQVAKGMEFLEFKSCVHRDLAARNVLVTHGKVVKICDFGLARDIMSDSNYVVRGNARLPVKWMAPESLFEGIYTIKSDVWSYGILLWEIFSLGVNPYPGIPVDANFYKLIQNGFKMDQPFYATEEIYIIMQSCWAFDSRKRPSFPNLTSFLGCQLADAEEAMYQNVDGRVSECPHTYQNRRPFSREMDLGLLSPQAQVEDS
Chain of Serine/threonine-protein kinase B-raf (Homo sapiens, UniProt P15056) (P15056 whole entry): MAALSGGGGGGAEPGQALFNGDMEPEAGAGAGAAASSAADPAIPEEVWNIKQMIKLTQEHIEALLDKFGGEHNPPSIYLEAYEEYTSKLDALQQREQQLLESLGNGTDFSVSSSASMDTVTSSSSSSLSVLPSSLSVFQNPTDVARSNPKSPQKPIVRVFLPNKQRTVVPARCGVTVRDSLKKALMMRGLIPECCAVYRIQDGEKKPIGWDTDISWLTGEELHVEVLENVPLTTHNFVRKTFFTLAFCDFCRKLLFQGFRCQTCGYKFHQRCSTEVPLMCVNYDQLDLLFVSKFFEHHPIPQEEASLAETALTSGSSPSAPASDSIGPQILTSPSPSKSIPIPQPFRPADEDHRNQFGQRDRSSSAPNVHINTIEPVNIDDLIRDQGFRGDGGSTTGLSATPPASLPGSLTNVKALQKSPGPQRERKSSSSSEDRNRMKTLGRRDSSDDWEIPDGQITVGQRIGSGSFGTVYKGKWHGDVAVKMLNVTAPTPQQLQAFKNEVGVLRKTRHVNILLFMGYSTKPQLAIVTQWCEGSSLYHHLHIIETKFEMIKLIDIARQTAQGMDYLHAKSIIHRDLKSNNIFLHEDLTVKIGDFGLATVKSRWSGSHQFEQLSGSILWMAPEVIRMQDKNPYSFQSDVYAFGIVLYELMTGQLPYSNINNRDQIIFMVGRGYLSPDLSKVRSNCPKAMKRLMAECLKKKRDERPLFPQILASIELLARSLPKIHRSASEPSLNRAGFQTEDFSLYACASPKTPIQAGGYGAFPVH

- pIC50 [1]: 7.76
- pIC50 [2]: 7.74
- pIC50 (cells [3]): 8.40
- pIC50 (cells [4]): 5.80
- pIC50 (cells [5]): 8.77
SMILES: CNC(=O)c1ncc(C#Cc2cc(C(=O)Nc3ccc(CN4CCN(C)CC4)c(C(F)(F)F)c3)ccc2C)n1C

- pIC50 [1]: 8.32
- pIC50 [2]: 6.85
- pIC50 (cells [3]): 7.97
- pIC50 (cells [4]): 5.62
- pIC50 (cells [5]): 9.19
SMILES: COCCN1CCN(Cc2ccc(NC(=O)c3ccc(C)c(C#Cc4cnc(C(N)=O)n4C)c3)cc2C(F)(F)F)CC1

- pIC50 [1]: 7.54
- pIC50 [2]: 6.86
- pIC50 (cells [3]): 7.76
- pIC50 (cells [4]): 5.90
- pIC50 (cells [5]): 8.55
SMILES: Cc1ccc(C(=O)Nc2ccc(CN3CCN(C)CC3)c(C(F)(F)F)c2)cc1C#Cc1cnc(N)s1

The next lines start with the compound.

SMILES: Cc1ccc(C(=O)Nc2ccc(CN3CCN(C)CC3)c(C(F)(F)F)c2)cc1C#Cc1cnc(C)n1C
- pIC50 [1]: 7.14
- pIC50 [2]: 6.44
- pIC50 (cells [3]): 7.16
- pIC50 (cells [4]): 5.75
- pIC50 (cells [5]): 8.07

SMILES: Cc1ccc(C(=O)Nc2ccc(CN3CCN(C)CC3)c(C(F)(F)F)c2)cc1C#Cc1cnc(C(N)=O)n1C
- pIC50 [1]: 8.44
- pIC50 [2]: 7.60
- pIC50 (cells [3]): 8.12
- pIC50 (cells [4]): 6.10
- clearance [6]: 15.3 mL/min/kg
- Cmax [7]: 258 ng/mL
- half-life [8]: 7 h
- bioavailability [9]: 25.3%
- half-life [10]: 8 h
- concentration at 6 h [11]: 358 ng/mL
- Vd [12]: 9.3 L/kg
- pIC50 (cells [5]): 8.89
- AUC (Rattus norvegicus [13]): 4144 h/ng/mL
- Cmax [14]: 627 ng/mL
- AUC (Rattus norvegicus [15]): 5445 h/ng/mL

SMILES: Cc1ccc(C(=O)Nc2ccc(CN3CCN(C)CC3)c(C(F)(F)F)c2)cc1C#Cc1cnc(C(=O)NCCO)n1C
- pIC50 [1]: 7.26
- pIC50 [2]: 6.52
- pIC50 (cells [3]): 7.19
- pIC50 (cells [4]): 5.80
- pIC50 (cells [5]): 8.41

SMILES: CNC(=O)c1ncc(C#Cc2cc(C(=O)Nc3ccc(CN4CCN(CCO)CC4)c(C(F)(F)F)c3)ccc2C)n1C
- pIC50 [16]: 8.70
- pIC50 (Ephrin type-A receptor 7): 8.38
- pIC50 [17]: 7.70
- pIC50 (cells [3]): 8.08
- pIC50 (cells [4]): 5.51
- pIC50 (Angiopoietin-1 receptor): 8.66
- pIC50 [18]: 8.28
- pIC50 [19]: 8.89
- pIC50 [20]: < 5.52
- Activity [21]: 130%
- pIC50 [22]: 8.40
- clearance [6]: 17.2 mL/min/kg
- Cmax [7]: 344 ng/mL
- half-life [8]: 5.6 h
- pIC50 [23]: 7.98
- bioavailability [9]: 45%
- pIC50 (Aurora kinase A): < 5.52
- pIC50 (Ephrin type-A receptor 3): 8.92
- half-life [10]: 10 h
- pIC50 [24]: 8.19
- pIC50 [25]: 8.14
- pIC50 [26]: 8.82
- concentration at 6 h [11]: 1150 ng/mL
- pIC50 [27]: 7.26
- pIC50 (Ephrin type-A receptor 2): 9.22
- pIC50 (Insulin receptor): < 5.52
- Vd [12]: 8.2 L/kg
- pIC50 (cells [5]): 8.89
- pIC50 [28]: 8.74
- pIC50 [29]: < 5.52
- pIC50 [30]: > 9.82
- AUC (Rattus norvegicus [13]): 6586 h/ng/mL
- pIC50 [31]: 8.64
- Cmax [14]: 200 ng/mL
- pIC50 [32]: 7.59
- pIC50 [33]: 7.24
- AUC (Rattus norvegicus [15]): 970 h/ng/mL
- pIC50 [34]: 6.27
- pIC50 [35]: 7.47

SMILES: Cc1ccc(C(=O)Nc2ccc(CN3CCN(CC(=O)O)CC3)c(C(F)(F)F)c2)cc1C#Cc1cnc(C(N)=O)n1C
- pIC50 [1]: 8.37
- pIC50 [2]: 6.97
- pIC50 (cells [3]): 7.19
- pIC50 (cells [4]): 5.00
- pIC50 (cells [5]): 8.12

SMILES: CC(=O)Nc1ncc(C#Cc2cc(C(=O)Nc3ccc(CN4CCN(C)CC4)c(C(F)(F)F)c3)ccc2C)s1
- pIC50 [1]: 7.92
- pIC50 [2]: 7.57
- pIC50 (cells [3]): 8.26
- pIC50 (cells [4]): 7.01
- pIC50 (cells [5]): 9.17
